Test results from patent publication US5304367A, “In vivo brain imaging agent and method for diagnosis of psychiatric disorders” (New York University, priority 1990, dated 1994).
Like-named read-outs stand apart in the source and are kept apart here.

Assays:
[1] = whole body distribution, mice, 2 μCi; assay type: in vivo, mouse
Protocol: In a subsequent study, whole body distribution was examined in mice following tail vein injection of 2 μCi ^125 I-iodopindolol. Animals were sacrificed at various time points up to 22 hours post-injection. Percent injected dose (%ID) was determined in 11 organs, blood and urine. At one minute, lungs contained the highest %ID (17%), heart 3-4 %ID and brain 0.3%ID.

[2] = test system: βAR; assay type: binding, human
[3] = test system: βAR; experiment: quantitative autoradiography, age dependence of βAR distribution in the human brain; assay type: binding

CC(C)NCC(O)COc1cccc2[nH]cc([125I])c12 (centres unmarked) [^125 I-iodopindolol]
radioactivity in all organs ([1]; between 2-4 hours post-injection): fell in all organs | brain, percent injected dose (%ID) ([1]; one minute, 2 μCi tail vein): 0.3 %ID | heart, percent injected dose (%ID) ([1]; one minute, 2 μCi tail vein): 3-4 %ID | lungs, percent injected dose (%ID) ([1]; one minute, 2 μCi tail vein): 17 %ID | brain levels, time course ([1]; until two hours post-injection): remained stable until two hours post-injection | lung radioactivity ([1]; until two hours post-injection): declined | stomach and intestine radioactivity ([1]; until two hours post-injection): increased | specific binding ([2]; cingulate gyrus, external band, female, n=4): 1.20 ± 0.31 fmol [^125 I]iodopindolol/mg tissue | specific binding ([2]; cingulate gyrus, external band, male, n=10): 0.99 ± 0.18 fmol [^125 I]iodopindolol/mg tissue | specific binding ([2]; cingulate gyrus, internal band, female, n=4): 1.31 ± 0.24 fmol [^125 I]iodopindolol/mg tissue | specific binding ([2]; cingulate gyrus, internal band, male, n=10): 0.87 ± 0.16 fmol [^125 I]iodopindolol/mg tissue | specific binding ([2]; gyrus rectus, external band, female, n=3): 1.42 ± 0.13 fmol [^125 I]iodopindolol/mg tissue | specific binding ([2]; gyrus rectus, external band, male, n=9): 0.93 ± 0.18 fmol [^125 I]iodopindolol/mg tissue | specific binding ([2]; gyrus rectus, internal band, female, n=3): 1.24 ± 0.23 fmol [^125 I]iodopindolol/mg tissue | specific binding ([2]; gyrus rectus, internal band, male, n=9): 0.80 ± 0.13 fmol [^125 I]iodopindolol/mg tissue | specific binding ([2]; inferior frontal gyrus, external band, female, n=5): 1.08 ± 0.19 fmol [^125 I]iodopindolol/mg tissue | specific binding ([2]; inferior frontal gyrus, external band, male, n=11): 0.86 ± 0.13 fmol [^125 I]iodopindolol/mg tissue | specific binding ([2]; inferior frontal gyrus, internal band, female, n=5): 0.99 ± 0.16 fmol [^125 I]iodopindolol/mg tissue | specific binding ([2]; inferior frontal gyrus, internal band, male, n=11): 0.78 ± 0.13 fmol [^125 I]iodopindolol/mg tissue | specific binding ([2]; medial frontal gyrus, external band, female, n=5): 1.36 ± 0.23 fmol [^125 I]iodopindolol/mg tissue | specific binding ([2]; medial frontal gyrus, external band, male, n=13): 0.77 ± 0.12 fmol [^125 I]iodopindolol/mg tissue | specific binding ([2]; medial frontal gyrus, internal band, female, n=5): 1.09 ± 0.16 fmol [^125 I]iodopindolol/mg tissue | specific binding ([2]; medial frontal gyrus, internal band, male, n=12): 0.71 ± 0.10 fmol [^125 I]iodopindolol/mg tissue | specific binding ([2]; orbital gyri, external band, female, n=4): 1.46 ± 0.25 fmol [^125 I]iodopindolol/mg tissue | specific binding ([2]; orbital gyri, external band, male, n=11): 0.77 ± 0.12 fmol [^125 I]iodopindolol/mg tissue | specific binding ([2]; orbital gyri, internal band, female, n=4): 1.24 ± 0.18 fmol [^125 I]iodopindolol/mg tissue | specific binding ([2]; orbital gyri, internal band, male, n=10): 0.70 ± 0.10 fmol [^125 I]iodopindolol/mg tissue | specific binding ([2]; superior frontal gyrus, external band, female, n=6): 1.48 ± 0.25 fmol [^125 I]iodopindolol/mg tissue | specific binding ([2]; superior frontal gyrus, external band, male, n=16): 0.87 ± 0.09 fmol [^125 I]iodopindolol/mg tissue | specific binding ([2]; superior frontal gyrus, internal band, female, n=6): 1.24 ± 0.12 fmol [^125 I]iodopindolol/mg tissue | specific binding ([2]; superior frontal gyrus, internal band, male, n=16): 0.82 ± 0.07 fmol [^125 I]iodopindolol/mg tissue | specific binding ([2]; white matter, female, n=6): 0.78 ± 0.09 fmol [^125 I]iodopindolol/mg tissue | specific binding ([2]; white matter, male, n=16): 0.46 ± 0.04 fmol [^125 I]iodopindolol/mg tissue | specifically bound ([3]; caudate nucleus, head, male, N=5): 1.45 ± 0.34 fmol [^125 I]iodopindolol/mg tissue | specifically bound ([3]; caudate nucleus, tail, female, N=8): 1.15 ± 0.17 fmol [^125 I]iodopindolol/mg tissue | specifically bound ([3]; caudate nucleus, tail, male, N=14): 1.39 ± 0.23 fmol [^125 I]iodopindolol/mg tissue | specifically bound ([3]; claustrum, female, N=5): 0.64 ± 0.18 fmol [^125 I]iodopindolol/mg tissue | specifically bound ([3]; claustrum, male, N=9): 0.86 ± 0.14 fmol [^125 I]iodopindolol/mg tissue | specifically bound ([3]; entorhinal cortex, female, N=3): 0.94 ± 0.33 fmol [^125 I]iodopindolol/mg tissue | specifically bound ([3]; entorhinal cortex, male, N=10): 1.00 ± 0.19 fmol [^125 I]iodopindolol/mg tissue | specifically bound ([3]; globus pallidus, lateral, female, N=5): 0.78 ± 0.16 fmol [^125 I]iodopindolol/mg tissue | specifically bound ([3]; globus pallidus, lateral, male, N=8): 0.85 ± 0.20 fmol [^125 I]iodopindolol/mg tissue | specifically bound ([3]; globus pallidus, medial, female, N=3): 0.44 ± 0.09 fmol [^125 I]iodopindolol/mg tissue | specifically bound ([3]; globus pallidus, medial, male, N=8): 0.73 ± 0.17 fmol [^125 I]iodopindolol/mg tissue | specifically bound ([3]; hippocampus, CA fields, molecular layer, female, N=4): 1.70 ± 0.40 fmol [^125 I]iodopindolol/mg tissue | specifically bound ([3]; hippocampus, CA fields, molecular layer, male, N=13): 1.74 ± 0.26 fmol [^125 I]iodopindolol/mg tissue | specifically bound ([3]; hippocampus, CA fields, pyramidal layer, female, N=4): 1.70 ± 0.26 fmol [^125 I]iodopindolol/mg tissue | specifically bound ([3]; hippocampus, CA fields, pyramidal layer, male, N=13): 1.74 ± 0.26 fmol [^125 I]iodopindolol/mg tissue | specifically bound ([3]; inferior temporal gyrus, external band, female, N=5): 1.21 ± 0.14 fmol [^125 I]iodopindolol/mg tissue | specifically bound ([3]; inferior temporal gyrus, external band, male, N=13): 1.04 ± 0.16 fmol [^125 I]iodopindolol/mg tissue | specifically bound ([3]; inferior temporal gyrus, internal band, female, N=6): 1.11 ± 0.17 fmol [^125 I]iodopindolol/mg tissue | specifically bound ([3]; inferior temporal gyrus, internal band, male, N=13): 1.14 ± 0.17 fmol [^125 I]iodopindolol/mg tissue | specifically bound ([3]; lateral occipitotemporal gyrus, external band, female, N=6): 0.93 ± 0.19 fmol [^125 I]iodopindolol/mg tissue | specifically bound ([3]; lateral occipitotemporal gyrus, external band, male, N=13): 0.94 ± 0.13 fmol [^125 I]iodopindolol/mg tissue | specifically bound ([3]; lateral occipitotemporal gyrus, internal band, female, N=6): 0.86 ± 0.11 fmol [^125 I]iodopindolol/mg tissue | specifically bound ([3]; lateral occipitotemporal gyrus, internal band, male, N=13): 1.02 ± 0.14 fmol [^125 I]iodopindolol/mg tissue | specifically bound ([3]; medial temporal gyrus, external band, female, N=6): 1.03 ± 0.15 fmol [^125 I]iodopindolol/mg tissue | specifically bound ([3]; medial temporal gyrus, external band, male, N=13): 1.05 ± 0.18 fmol [^125 I]iodopindolol/mg tissue | specifically bound ([3]; medial temporal gyrus, internal band, female, N=6): 1.06 ± 0.15 fmol [^125 I]iodopindolol/mg tissue | specifically bound ([3]; medial temporal gyrus, internal band, male, N=13): 1.18 ± 0.17 fmol [^125 I]iodopindolol/mg tissue | specifically bound ([3]; parahippocampal gyrus, external band, female, N=7): 1.22 ± 0.32 fmol [^125 I]iodopindolol/mg tissue | specifically bound ([3]; parahippocampal gyrus, external band, male, N=13): 1.07 ± 0.19 fmol [^125 I]iodopindolol/mg tissue | specifically bound ([3]; parahippocampal gyrus, internal band, female, N=6): 1.01 ± 0.23 fmol [^125 I]iodopindolol/mg tissue | specifically bound ([3]; parahippocampal gyrus, internal band, male, N=13): 0.95 ± 0.15 fmol [^125 I]iodopindolol/mg tissue | specifically bound ([3]; putamen, female, N=6): 1.05 ± 0.22 fmol [^125 I]iodopindolol/mg tissue | specifically bound ([3]; putamen, male, N=11): 1.24 ± 0.18 fmol [^125 I]iodopindolol/mg tissue | specifically bound ([3]; subiculum, female, N=5): 1.35 ± 0.33 fmol [^125 I]iodopindolol/mg tissue | specifically bound ([3]; subiculum, male, N=12): 1.36 ± 0.20 fmol [^125 I]iodopindolol/mg tissue | specifically bound ([3]; superior temporal gyrus, external band, female, N=6): 1.18 ± 0.18 fmol [^125 I]iodopindolol/mg tissue | specifically bound ([3]; superior temporal gyrus, external band, male, N=14): 1.13 ± 0.16 fmol [^125 I]iodopindolol/mg tissue | specifically bound ([3]; superior temporal gyrus, internal band, female, N=6): 1.04 ± 0.13 fmol [^125 I]iodopindolol/mg tissue | specifically bound ([3]; superior temporal gyrus, internal band, male, N=14): 1.18 ± 0.15 fmol [^125 I]iodopindolol/mg tissue | specifically bound ([3]; white matter, female, N=8): 0.47 ± 0.09 fmol [^125 I]iodopindolol/mg tissue | specifically bound ([3]; white matter, male, N=18): 0.59 ± 0.07 fmol [^125 I]iodopindolol/mg tissue
